± gives the expanded uncertainty stated by the source.

The conditions of series [1]: 293.15 K; 101.33 kPa; Liquid.
A short description of series [2]: Boiling temperature at pressure P. The note with it: 100 kPa; Liquid; Ebulliometric method (Recirculating still).
Series [3] is described as follows: refractive index (Na D-line) (dimensionless). The note with it: 293.15 K; 101.33 kPa; Liquid; Standard Abbe refractometry.

Regarding `CCC(C)CO` (centres undefined) [2-methyl-1-butanol], the mass density in series [1] was 817.8 ± 5 kg/m3. The “Boiling temperature at pressure P” value in series [2] came to 128.40 ± 0.2 °C. Besides, the refractive index in series [3] is listed as 1.4095 ± 0.0007.
The like results for `OCCO` [1,2-ethanediol] were, in that order, 1113.6 ± 5.1 kg/m3, 197.48 ± 0.2 °C and 1.4328 ± 0.0008.
On to `CC(C)CCO` [3-methylbutan-1-ol], for which the mass density in series [1] is listed as 808.1 ± 5 kg/m3. Besides, in series [2], the “Boiling temperature at pressure P” value was determined as 131.30 ± 0.2 °C. For the same molecule, the refractive index in series [3] is on record as 1.4054 ± 0.0007.

In general, mass density refers to the mass of a sample divided by its volume. Usually refractive index stands for a measure of how strongly the sample bends light.

(Values after the NIST ThermoML archive (doi:10.1021/je030216r).)
